Eleven compounds from patent publication US10584127B2, “3,3-difluoropiperidine carbamate heterocyclic compounds as NR2B NMDA receptor antagonists” (Rugen Holdings (Cayman) Limited, priority 2015, dated 2020) can be followed below.

For data set [1], the target named is CYP2D6 (Homo sapiens (Human), UniProt P10635). Kind of data set: CYP P450 enzyme inhibition, pooled human liver microsome. Type of data set: in vitro ADME. Conditions: HLM, dextromethorphan 5 μM. On the technique in general: Microsomes from liver hold many membrane-bound enzymes, among them those of drug oxidation.
Chain of CYP2D6 (P10635 whole entry): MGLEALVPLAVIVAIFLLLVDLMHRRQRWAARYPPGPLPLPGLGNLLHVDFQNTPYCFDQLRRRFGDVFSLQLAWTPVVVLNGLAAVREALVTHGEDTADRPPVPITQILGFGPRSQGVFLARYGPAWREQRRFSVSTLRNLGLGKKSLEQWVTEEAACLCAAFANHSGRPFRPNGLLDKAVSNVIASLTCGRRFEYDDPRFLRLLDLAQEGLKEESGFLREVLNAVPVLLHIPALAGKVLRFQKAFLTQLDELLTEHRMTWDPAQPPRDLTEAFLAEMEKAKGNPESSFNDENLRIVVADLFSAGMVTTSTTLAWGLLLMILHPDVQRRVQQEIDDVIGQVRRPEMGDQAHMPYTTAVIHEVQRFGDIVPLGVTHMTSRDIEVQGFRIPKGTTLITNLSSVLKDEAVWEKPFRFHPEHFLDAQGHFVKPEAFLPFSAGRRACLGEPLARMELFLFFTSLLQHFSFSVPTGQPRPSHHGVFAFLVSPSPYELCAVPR
Method: Those CYP isoforms and their corresponding probe substrates are as follows: CYP1A2 (phenacetin, 30 μM), CYP2C9 (tolutamide, 100 μM), CYP2C19 (S-mephenytoin, 40 μM), CYP2D6 (dextromethorphan, 5 μM) and CYP3A4 (midazolam, 1 μM). All probe substrates were used at concentrations near or below their Kms. For experiment, a reaction mixture of test compound at 10 μM or in serial dilution, CYP probe substrate described above and 0.2 mg/mL pooled HLM in phosphate buffer, pH 7.4 in a final volume of 200 μL was pre-incubated at 37° C. for 10 minutes in triplicate. The reaction was initiated by addition of NADPH at final concentration of 1 mM. The reaction was terminated after 10 minutes (CYP1A2, CYP2D6 and CYP3A4) or 30 minutes (CYP2C9 and CYP2C19) by addition of 100 μL ice-cold acetonitrile with internal standard (IS). The samples were then centrifuged at 13,000 rpm and the supernatants were injected to LC-MS/MS (Agilent Technologies) to quantify the concentration of the specific metabolites of the probe substrates formed by individual CYP450 isoforms. The inhibition ratio is calculated as: (Mt−M0)/Mwater×100% in which Mt and M0 represent the concentrations of the specific probe substrate metabolite, which was formed by individual CYP450 isoform, at the beginning and end of the reaction in the presence of test compound; while Mwater represents the concentration of the specific metabolite at the end of the reaction in the absence of test compound. Test compound concentration-dependent response data experiments performed in triplicate.
The subject of data set [2] is NMDA receptor (all subtypes), native rat brain receptors. Kind of data set: [3H] MK-801 radioligand binding assay, rat brain membranes. Conditions: 2 nM [3H] MK-801, rat brain membranes. The procedure: This example describes NMDA receptor binding assays using two different radioligands, [^3H] […] An established binding assay using the non-selective NMDA receptor ligand [^3H] […] The binding assay method using the NR2B selective receptor ligand [^3H] […] This assay serves as a selective measure of NR2B receptor binding activity in native rat brain receptors. Briefly, the brains of Male Wistar rats were homogenized (Polytron) before centrifugation at 40,000×g for 15 minutes at 4° C. After 2 washes, the final pellet was homogenized and stored at −80° C. The protein concentration was determined by Bradford assay.
Test compounds were solubilized at 10 mM in DMSO. Then the dilutions were performed with a constant solvent concentration (1% DMSO) in the assay.
After incubation for 4.5 h at room temperature, the assays were filtered on GF/B filters pretreated with 0.3% (v/v) PEI with a Brandel system for [^3H] […] The experiment was performed in duplicate (n=2).

For data set [3], the target named is cloned human NR1/NR2A (Homo sapiens (Human), UniProt Q12879). The data set can be described thus: NR2A antagonist activity, Fluo-4 calcium influx in HEK293 cells. Conditions: glutamate 100 μM, glycine 50 μM. Type of data set: cell-based.
Chain of cloned human NR1/NR2A (Q12879 23-1464, other chains not shown): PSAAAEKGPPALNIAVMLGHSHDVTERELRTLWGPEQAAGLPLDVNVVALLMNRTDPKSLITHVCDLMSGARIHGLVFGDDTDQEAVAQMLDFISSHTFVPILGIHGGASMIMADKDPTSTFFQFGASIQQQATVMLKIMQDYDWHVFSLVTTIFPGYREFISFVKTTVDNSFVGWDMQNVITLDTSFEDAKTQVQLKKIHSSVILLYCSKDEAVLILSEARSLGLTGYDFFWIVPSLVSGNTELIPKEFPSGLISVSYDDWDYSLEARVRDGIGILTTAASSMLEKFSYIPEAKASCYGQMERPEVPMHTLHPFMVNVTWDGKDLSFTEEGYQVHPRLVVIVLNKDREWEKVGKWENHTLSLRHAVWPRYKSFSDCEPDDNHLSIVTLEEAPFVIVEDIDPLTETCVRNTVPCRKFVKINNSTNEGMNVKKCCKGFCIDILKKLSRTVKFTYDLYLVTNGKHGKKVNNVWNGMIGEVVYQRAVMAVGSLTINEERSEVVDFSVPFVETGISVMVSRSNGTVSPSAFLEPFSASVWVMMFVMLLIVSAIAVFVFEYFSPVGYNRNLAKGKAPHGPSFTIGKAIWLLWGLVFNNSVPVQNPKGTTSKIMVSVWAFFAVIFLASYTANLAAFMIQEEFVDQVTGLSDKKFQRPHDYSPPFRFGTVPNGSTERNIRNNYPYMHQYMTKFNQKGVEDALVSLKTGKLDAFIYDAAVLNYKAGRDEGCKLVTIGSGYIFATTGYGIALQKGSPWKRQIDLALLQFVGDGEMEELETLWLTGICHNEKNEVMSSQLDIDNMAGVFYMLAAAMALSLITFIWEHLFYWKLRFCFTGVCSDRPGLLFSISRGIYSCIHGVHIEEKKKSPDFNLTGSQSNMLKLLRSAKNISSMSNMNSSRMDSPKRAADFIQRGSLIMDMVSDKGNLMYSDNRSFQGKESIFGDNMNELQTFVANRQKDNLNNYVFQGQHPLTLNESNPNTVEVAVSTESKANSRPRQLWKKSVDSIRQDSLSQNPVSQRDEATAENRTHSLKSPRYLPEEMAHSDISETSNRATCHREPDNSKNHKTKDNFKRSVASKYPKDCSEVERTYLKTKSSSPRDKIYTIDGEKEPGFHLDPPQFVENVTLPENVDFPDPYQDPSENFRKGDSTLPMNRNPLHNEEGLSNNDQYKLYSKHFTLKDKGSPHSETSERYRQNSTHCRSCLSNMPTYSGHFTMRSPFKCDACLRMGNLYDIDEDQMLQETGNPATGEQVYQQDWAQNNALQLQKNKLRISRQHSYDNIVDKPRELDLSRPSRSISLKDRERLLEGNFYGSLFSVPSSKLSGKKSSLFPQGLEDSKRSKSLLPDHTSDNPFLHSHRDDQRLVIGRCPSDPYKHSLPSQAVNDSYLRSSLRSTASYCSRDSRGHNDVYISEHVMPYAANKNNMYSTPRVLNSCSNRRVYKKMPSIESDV
Method: Activation of the NR2A or NR2B subtype of NMDA receptor with glutamate as an agonist and glycine co-agonist on these cells results in calcium influx, which can be monitored with fluorescent indicator Fluo-4.
For experiments, the cells were seeded onto poly-D-lysine-coated 96-well black plates with clear bottom (Corning) at a density of ^˜50,000 cells/well. After overnight culture, the growth medium was removed from the wells and the cells were incubated at 37° C. for 60 min in Hanks buffer containing 4 μM fluo-4-AM (Invitrogen) and 0.1% bovine serum albumin (BSA). After dye-loading, the cells were washed three times with Hanks buffer and incubated for 10 min at room temperature with various concentrations of test compounds prepared in Hanks buffer with 0.1% BSA. The cell plates were placed onto FDSS μCell fluorescence reader (Hamamatsu). After 20 sec reading of background fluorescence, agonist glutamate at final 100 μM and co-agonist glycine at final 50 μM were added to the cells to activate the receptor, and the resulting fluorescence changes were recorded and quantified. Based on the changes in fluorescence intensity, the pharmacological effect of test compounds were analyzed and the IC50 values derived from a non-linear least squares fitting of the concentration-dependent response to a standard logistic equation using Prism (Graphpad, Inc): Amplitude=Max Amplitude/(1+(IC50/[antagonist])^n).
The subject of data set [4] is electroconvulsive threshold (tonic convulsions). The data set can be described thus: Electroconvulsive Threshold Test (ECT). Type of data set: in vivo, rats. Conditions: rats. As to the method: Rats were administered ECS (rectangular current: 0.6 ms pulse width, 1.5 s duration, 200 Hz) via earclip electrodes connected to a constant current shock generator (Ugo Basile: type 7801). Test compounds were administered by oral gavage (p.o.) 1 hour before the test at a dose volume of 5 mL/kg.
Treatment groups of 20 rats were exposed to ECS as follows: The first animal was exposed to 30 mA of ECS. […] (increases of 5 mA) until the first tonic convulsion was observed. Once the first tonic convulsion was observed, the intensity of ECS was decreased by 2 mA for the next animal and then decreased or increased by 2 mA from animal to animal depending on whether the previous animal convulsed or not. If the first animal did convulse (tonic convulsions) within 5 seconds, animal n°2 is exposed to 25 mA, etc . . . (decreases of 5 mA) until the absence of tonic convulsions was observed. At this point, the intensity of ECS was increased by 2 mA for the next animal and then decreased or increased by 2 mA from animal to animal depending on whether the previous animal convulsed or not. The minimum current intensity applied is 5 mA and the maximum 95 mA. The first 5 animals serve to approach threshold current and were not included in the analysis. The results are presented as the mean current intensity administered to the final 15 animals of a group. The test was performed blind. A positive percent change indicates an anticonvulsant effect. A negative percent change indicates a proconvulsant effect. The test substance was evaluated at 4 doses, typically using 0.5% dimethylsulfoxide, 4% hydroxypropyl-b-cyclodextrin water as a vehicle, and administered p.o. 60 minutes before ECS, and compared with a vehicle control group. Diazepam (16 mg/kg p.o.), administered under the same experimental conditions, was used as reference substance. The experiment included 6 groups. Data with the test substance was analyzed by comparing treated groups with vehicle control using one-way ANOVA followed by Dunnett's t tests.

The subject of data set [5] is pentylenetetrazole-induced convulsions. Kind of data set: Pentylenetetrazole (PTZ) Seizure Test. Type of data set: in vivo, rats. Conditions: 10 mg/kg p.o., mesylate salt, PTZ 100 mg/kg s.c. As to the method: Rats, placed in individual macrolon cages (25×19×13 cm), were injected with pentylenetetrazole (PTZ) (100 mg/kg s.c.). The occurrence and latency of clonic and tonic convulsions and death were noted over a 30 minute period. 15 rats were studied per group. The test was performed blind.
Test compound E1-8.2 was administered as the free base.
Compounds were evaluated typically using 0.5% dimethylsulfoxide, 4% hydroxypropyl-b-cyclodextrin water as a vehicle at 1 or more doses (e.g., 1, 3 and 10 mg/kg), administered p.o. 30 minutes before PTZ, and compared with a vehicle control group. Diazepam (16 mg/kg p.o.), administered 60 minutes before PTZ, was used as reference substance. The experiment was performed over 2 separate sub-experiments with N=7 to 8 animals per group and per sub-experiment. Quantitative data (latencies) with the test substance was analyzed by comparing treated groups with vehicle control using Kruskal-Wallis test followed by Mann-Whitney U test. Quantitative data with the reference substance was analyzed using Mann-Whitney U test. Quantal data (frequencies) was analyzed by comparing treated groups with vehicle control using Fisher's Exact Probability tests (*=p<0.05; **=p<0.01; ***=p<0.001).

Consider `O=C(OCc1ccc(Cl)cc1)N1CC[C@H](CNc2nccn3cnnc23)C(F)(F)C1` [Compound E1-1.3, R-4-chlorobenzyl 4-(([1,2,4]triazolo[4,3-a]pyrazin-8-ylamino)methyl)-3,3-difluoropiperidine-1-carboxylate], for which the “CYP2D6 @ 10 μM (%)” value in data set [1] is reported as 37%. Moreover, the “partial effect on [3H] MK-801 binding” value in data set [2] stood at 41%.
As to `O=C(OCc1ccc(F)cc1)N1CC[C@H](CNc2nccn3cnnc23)C(F)(F)C1` [Compound E1-1.4, R-4-fluorobenzyl 4-(([1,2,4]triazolo[4,3-a]pyrazin-8-ylamino)methyl)-3,3-difluoropiperidine-1-carboxylate], in data set [1], the “CYP2D6 @ 10 μM (%)” value is given as 19%. In data set [2], the “partial effect on [3H] MK-801 binding” value was found to be 32%.
For the compound `CCc1ccc(COC(=O)N2CC[C@H](CNc3nccn4cnnc34)C(F)(F)C2)cc1` [Compound E1-1.5, R-4-ethylbenzyl 4-(([1,2,4]triazolo[4,3-a]pyrazin-8-ylamino)methyl)-3,3-difluoropiperidine-1-carboxylate], the “partial effect on [3H] MK-801 binding” value in data set [2] was found to be 48%.
In the case of `Cc1ccc(COC(=O)N2CC[C@H](CNc3cncc4nncn34)C(F)(F)C2)cc1` [Compound E1-2.2, R-4-methylbenzyl 4-(([1,2,4]triazolo[4,3-a]pyrazin-5-ylamino)methyl)-3,3-difluoropiperidine-1-carboxylate], the “CYP2D6 @ 10 μM (%)” value in data set [1] is given as 18%.
With `Cc1ccc(COC(=O)N2CC[C@H](CNc3ncc4cn[nH]c4n3)C(F)(F)C2)cc1` [Compound E1-8.2, (+)-R-4-methylbenzyl-4-((1H-pyrazolo[3,4-d]pyrimidin-6-ylamino)methyl)-3,3-difluoropiperidine-1-carboxylate], the IC50 (usually the concentration at which inhibition is half-maximal) in data set [3] is above 10 µM. The “CYP2D6 @ 10 μM (%)” value in data set [1] was 83%. Besides, the “activity on electroconvulsive threshold” value in data set [4] (0.5 and 2 mpk p.o., free base) is on record as “modest proconvulsant activity”; in data set [4] (10 and 20 mpk p.o., free base), “anticonvulsant activity”. Also, in data set [2], the “partial effect on [3H] MK-801 binding” value amounted to 33%.
Regarding `Cc1ccc(COC(=O)N2CC[C@H](CNc3nc4ccccn4n3)C(F)(F)C2)cc1` [Compound E1-9.2, (+)-R-4-methylbenzyl 4-(([1,2,4]triazolo[1,5-α]pyridin-2-ylamino)methyl)-3,3-difluoropiperidine-1-carboxylate], the IC50 in data set [3] is above 10 µM. In data set [1], the “CYP2D6 @ 10 μM (%)” value is listed as 14%. In addition, the “partial effect on [3H] MK-801 binding” value in data set [2] came out at 34%.
Take `Cc1ccc(COC(=O)N2CC[C@H](CNc3cnccn3)C(F)(F)C2)cc1` [Compound E1-21.2, R-4-methylbenzyl 3,3-difluoro-4-((pyrazin-2-ylamino)methyl)piperidine-1-carboxylate]: the “CYP2D6 @ 10 μM (%)” value in data set [1] amounted to 97%. Further, the “partial effect on [3H] MK-801 binding” value in data set [2] is 49%.
For `Cc1ccc(COC(=O)N2CC[C@H](CNc3cnc(C)cn3)C(F)(F)C2)cc1` [Compound E1-21.26, R-4-methylbenzyl 3,3-difluoro-4-((5-methylpyrazin-2-ylamino)-methyl)piperidine-1-carboxylate], in data set [5], the “latency to death, change vs vehicle controls” value is given as “+31%” and the “number of deaths, change vs vehicle controls” value is −82%. In addition, the “CYP2D6 @ 10 μM (%)” value in data set [1] is on record as 32%. For the same compound, the “activity on electroconvulsive threshold” value in data set [4] (3 and 10 mpk p.o., mesylate salt) is “anticonvulsant activity”. Moreover, the “partial effect on [3H] MK-801 binding” value in data set [2] came out at 41%.
In the case of `Cc1ccc(COC(=O)N2CC[C@@H](CNc3nccn4cnnc34)C(F)(F)C2)cc1` [Compound E2-1.2, (−)-S-4-methylbenzyl 4-(([1,2,4]triazolo[4,3-a]pyrazin-8-ylamino)methyl)-3,3-difluoropiperidine-1-carboxylate], the “partial effect on [3H] MK-801 binding” value in data set [2] is recorded as 36%.
Regarding `FC(F)(F)c1ccc(C(F)(F)CN2CCC(Nc3ncnc4[nH]ncc34)CC2)cc1` [LX-1, reference compound], in data set [1], the “CYP2D6 @ 10 μM (%)” value worked out at 93%.
Take `Cn1c(=O)c2[nH]cnc2n(C)c1=O` [theophylline, reference compound]: the “activity on electroconvulsive threshold” value in data set [4] (128 mpk p.o.) is on record as “expected proconvulsant activity”.
